In patent publication US20260324636A1, “COMPOSITION FOR PROVIDING PLANT WITH STRESS RESISTANCE” (KIRIN HOLDINGS KABUSHIKI KAISHA, priority 2022, published 2026):

Legend:
Arabidopsis thaliana = experiment: High-temperature stress resistance in liquid culture (leaf chlorosis, chlorophyll content), Example 1; assay type: in vivo, Arabidopsis thaliana (Col-0); conditions: for chlorosis of plants caused by the high-temperature treatment: 2 h before 44° C. for 60 minutes, then 22° C. 3 days; for chlorophyll content (fresh weight basis): 44° C. 60 minutes, vs group not subjected to the treatment
From the text: A wild-type Arabidopsis thaliana strain (accession: Col-0) was used as an experimental material. Seeds were purchased from Inplanta Innovations Inc. (https://www.inplanta.jp/).
A liquid medium containing a ½ Murashige and Skoog Plant Salt Mixture (Nacalai) and 1 (w/v) % sucrose (FUJIFILM Wako) was used as a growth medium.
Arabidopsis thaliana seeds were sterilized with the use of a Kitchen Haiter® liquid (bleach for kitchen available from Kao Corporation) diluted to one-half concentration with distilled water for 3 minutes, washed 3 times with sterile distilled water, and then incubated at 4° C. overnight. The growth medium was dispensed at 1 ml/well on a 24-well microplate (IWAKI), 3 grains of the seeds were inoculated in each well, and the plate was transferred to the incubator (TOMY) to initiate growing. The incubator was maintained at a temperature of 22° C. for a daily cycle of 16 hours light and 8 hours darkness.
Before high-temperature treatment, a stock solution of N-acetylglutamic acid (Tokyo Chemical Industry Co., Ltd.) was added to Arabidopsis thaliana 7 days after seeding to the final concentration of 0, 0.01, 0.05, and 0.1 mM in the media, followed by incubation for 2 hours. Sterile distilled water was used as a solvent for the stock solution of N-acetylglutamic acid.
High-temperature treatment was performed with the use of an incubator. The plate was transferred to an incubator maintained at 44° C., incubated for 60 minutes to perform high-temperature treatment, and cultured in an incubator maintained at 22° C. for 3 days.
Plants are known to lose the green pigment chlorophyll from tissue such as leaves upon high-temperature stress exposure and become chlorotic as a consequence. Accordingly, the chlorophyll content was quantified after the high-temperature treatment to evaluate activity of N-acetylglutamic acid to enhance high-temperature stress resistance. The chlorophyll content was quantified in accordance with the method of Yamaguchi et al. (Nature Commun., Jun. 9, 2021, 12 [1]: 3480). To the collected plants, N,N-dimethylformamide (FUJIFILM Wako) was added at 1 ml/well, and incubation was performed at 4° C. in the dark overnight to extract the chlorophyll. Thereafter, the absorbance of the chlorophyll extract was measured at 647 nm (A647) and 664 nm (A664), respectively, using a microspectrophotometer (NanoPhotometer, Implen), and the chlorophyll content was calculated in accordance with the formula: 19.43×A647+8.05×A664. […] Thus, the chlorophyll content was calculated on a fresh weight basis to compare the chlorophyll content among samples.

hop = experiment: Oxidation stress resistance against methyl viologen in hop leaves (leaf chlorosis, chlorophyll content), Example 10; assay type: in vivo, hop (variety: Hersbrucker); conditions: 1 mM, 5 μM methyl viologen, 22° C. 4 days
Procedure: A hop strain (the variety: Hersbrucker) was used as an experimental material. Hop seedlings grown in the field of Kirin Brewery Company, Limited in Iwate, Japan were used.
A Murashige and Skoog Plant Salt Mixture 2.2 g and glucose 20 g (FUJIFILM Wako) were dissolved in 1 l of pure water, and a pH was adjusted to 5.8. Thereafter, agar (8 g (Ina Food Industry Co., Ltd.) was dissolved and autoclaved (121° C., 15 minutes).
A Murashige and Skoog Plant Salt Mixture 2.2 g and glucose 20 g were dissolved in 1 l of pure water, a pH was adjusted to 5.8, and the resultant was autoclaved (121° C., 20 minutes).
Tissue-cultured seedlings required for evaluation of oxidation stress response of a hop were prepared in a laboratory. […]
Leaf chlorosis is observed in plants upon oxidation stress exposure. Thus, an extent of chlorosis was evaluated by measuring the content of the green pigment chlorophyll in leaves.
Plants in a well (3 leaves) was transferred to a 1.5-ml tube containing 1 ml of N,N-dimethylformamide and incubated at 4° C. in the dark for 1 day to extract the chlorophyll. The absorbance of the extract was measured at 647 nm and 664 nm, respectively, to calculate the chlorophyll content on a leaf fresh weight basis. The chlorophyll content was calculated in the same manner as in Example 1.

HSFA2 = HSFA2 gene expression by real-time PCR, Example 5; assay type: in vivo; conditions: Arabidopsis thaliana; 0.1 mM in medium, 2 hours after application, 22° C.; read-out: HSFA2 expression level, increase vs group not subjected to the treatment
Procedure: The materials as used in Example 1 were used.
The method as employed in Example 1 was employed.
N-acetylglutamic acid was applied to Arabidopsis thaliana 7 days after inoculation to the final concentration of 0.1 mM in the medium, followed by incubation for 2 hours or 6 hours. The incubator was maintained at a temperature of 22° C. for a daily cycle of 16 hours light and 8 hours darkness. After incubation, the samples were frozen with liquid nitrogen, and RNA was extracted using the RNeasy Plant Mini Kit (Thermo Fischer Scientific).
cDNA that would be necessary as a real-time PCR template was synthesized from the RNA obtained. 500 ng total RNA was used for each sample, and cDNA was synthesized using the Verso cDNA Synthesis Kit (Thermo Fischer Scientific). The synthesized cDNA was diluted to 5-fold with sterile distilled water and subjected to real-time PCR. For real-time PCR, a reaction solution containing HSFA2 (AGI code: AT2G26150) and HSP17.6C (AGI code: AT1G53540) as the target genes, ACTIN2 (AGI code: AT3G18780) as the reference gene, and TB Green Ex Taq II (TaKaRa) was prepared. PCR was performed with the use of the LightCycler® 480 System (Roche) with the number of amplification cycles of 50. […]
Thereafter, the relative expression level of the target genes upon N-acetylglutamic acid treatment were calculated by the ΔΔCt method using the Cp values obtained by real-time PCR.

SMILES: CC(=O)N[C@@H](CCC(=O)O)C(=O)O [N-acetylglutamic acid]
- chlorosis of plants caused by the high-temperature treatment (Arabidopsis thaliana; 0.05 mM in medium): suppressed
- chlorophyll content (fresh weight basis) (Arabidopsis thaliana; 0.05 mM): significantly higher
- chlorosis of plants caused by the high-temperature treatment (Arabidopsis thaliana; 0.1 mM in medium): suppressed
- chlorophyll content (fresh weight basis) (Arabidopsis thaliana; 0.1 mM): significantly higher
- leaf chlorosis in MV-treated group, compared with control group (hop): more suppressed
- decrease in the chlorophyll content in the MV-treated groups, compared with the control group (hop; leaf fresh weight basis): suppressed
- fold induction at 100 µM (HSFA2): 2.5
